For this assay, the target named is T1, BTK (Homo sapiens, UniProt Q06187).
T1 construct: The GM01501.3 cell line endogenously expresses BTK with a HiBiT fusion tag via CRISPR knock-in at its C-terminal region; endogenous in cells; host or cells: GM01501.3 (GM01501 cells engineered by CRISPR knock-in of HiBiT at the BTK locus)
T1 sequence (Q06187 whole entry, the tested form may be a part): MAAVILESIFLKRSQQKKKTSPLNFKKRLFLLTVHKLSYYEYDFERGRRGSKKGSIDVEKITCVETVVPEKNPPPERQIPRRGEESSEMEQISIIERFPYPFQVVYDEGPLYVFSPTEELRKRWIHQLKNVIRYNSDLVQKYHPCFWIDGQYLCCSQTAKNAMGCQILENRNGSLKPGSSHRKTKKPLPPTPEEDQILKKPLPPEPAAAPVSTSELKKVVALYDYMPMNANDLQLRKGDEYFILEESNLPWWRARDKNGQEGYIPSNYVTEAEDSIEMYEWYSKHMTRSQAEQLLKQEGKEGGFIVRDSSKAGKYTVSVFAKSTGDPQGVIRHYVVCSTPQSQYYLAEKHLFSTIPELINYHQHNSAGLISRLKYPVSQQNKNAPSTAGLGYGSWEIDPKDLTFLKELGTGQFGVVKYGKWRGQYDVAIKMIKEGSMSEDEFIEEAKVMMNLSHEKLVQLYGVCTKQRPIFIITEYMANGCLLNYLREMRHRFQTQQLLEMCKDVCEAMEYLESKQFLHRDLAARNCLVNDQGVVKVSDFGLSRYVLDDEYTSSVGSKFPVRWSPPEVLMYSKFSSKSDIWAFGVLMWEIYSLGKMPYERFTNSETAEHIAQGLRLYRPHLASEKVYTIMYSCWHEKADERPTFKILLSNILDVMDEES
Nature of the assay: BTK degradation assay using the HiBiT Method (Nano-Glo HiBiT Lytic Assay, GM01501.3 cells). Format: cell-based. As to conditions: HiBiT Degradation on GM01501.3 BTK @ 6 hours. In outline:
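Degradation read-out: HiBiT luminescence after lytic reagent addition, giving DC50. Compounds dosed from 10 μM in 11 half-log steps (duplicate) onto GM01501.3 cells, whose endogenous BTK carries a C-terminal HiBiT knock-in tag; 6 h exposure, 37 °C, 5% CO2.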
In general terms: HiBiT is a short tag that completes a luciferase, so light tracks the accessible tagged protein.
Usually DC50 stands for the midpoint of the concentration-degradation curve. Read a low DC50 as a more potent degrader. `Cc1cc(-c2ncnn3cc(-c4ccc(C(=O)N[C@H](C)c5cccc(NC6CCC(=O)NC6=O)c5)cc4)cc23)ccc1CNC(=O)c1noc(C(C)(C)C)n1` (stereo partly drawn) [Example 199, 5-(tert-butyl)-N-(4-(6-(4-(((1R)-1-(3-((2,6-dioxopiperidin-3-yl)amino)phenyl)ethyl)carbamoyl)phenyl)pyrrolo[2,1-f] [1,2,4]triazin-4-yl)-2-methylbenzyl)-1,2,4-oxadiazole-3-carboxamide]: the DC50 is less than 100 nM.

`Cc1cc(-c2ncnn3cc(COCCN4CCC(c5ccc(C6CCC(=O)NC6=O)cc5)CC4)cc23)ccc1CNC(=O)c1noc(C(C)(C)C)n1` (centres unmarked) [Example 144, 5-tert-butyl-N-[[4-[6-[2-[4-[4-(2,6-dioxo-3-piperidyl)phenyl]-1-piperidyl]ethoxymethyl]pyrrolo[2,1-f][1,2,4]triazin-4-yl]-2-methyl-phenyl]methyl]-1,2,4-oxadiazole-3-carboxamide] registered a DC50 of less than 100 nM.

Take `CC(C)(C)c1nc(C(=O)NCc2ccc(-c3ncnn4cc(-c5ccc(CN6CCCC(Cc7ccc(OC8CCC(=O)NC8=O)cc7)C6)cn5)cc34)cc2F)no1` (centres unmarked) [Example 227, 5-(tert-butyl)-N-(4-(6-(5-((3-(4-((2,6-dioxopiperidin-3-yl)oxy)benzyl)piperidin-1-yl)methyl)pyridin-2-yl)pyrrolo[2,1-f][1,2,4]triazin-4-yl)-2-fluorobenzyl)-1,2,4-oxadiazole-3-carboxamide]: the DC50 lay within 100 to 500 nM. The result for `Cc1cc(-c2ncnn3cc(-c4ccc(C(=O)Nc5cccc6c5CCN(C5CCC(=O)NC5=O)C6)cc4)cc23)ccc1CNC(=O)c1noc(C(C)(C)C)n1` (centres unmarked) [Example 194, 5-(tert-butyl)-N-(4-(6-(4-((2-(2,6-dioxopiperidin-3-yl)-1,2,3,4-tetrahydroisoquinolin-5-yl)carbamoyl)phenyl)pyrrolo[2,1-f][1,2,4]triazin-4-yl)-2-methylbenzyl)-1,2,4-oxadiazole-3-carboxamide] reads less than 100 nM; that for `Cc1cc(-c2ncnn3cc(-c4ccc(CN5CCOCC(n6cc(NC7CCC(=O)NC7=O)cn6)C5)cc4)cc23)ccc1CNC(=O)c1noc(C(C)(C)C)n1` (centres unmarked) [Example 203, 5-(tert-butyl)-N-(4-(6-(4-((6-(4-((2,6-dioxopiperidin-3-yl)amino)-1H-pyrazol-1-yl)-1,4-oxazepan-4-yl)methyl)phenyl)pyrrolo[2,1-f][1,2,4]triazin-4-yl)-2-methylbenzyl)-1,2,4-oxadiazole-3-carboxamide], less than 100 nM. The result for `Cc1cc(-c2ncnn3cc(N4CCN(C(=O)CC5CC(NC(=O)c6ccc(OC7CCC(=O)NC7=O)cc6)C5)CC4)cc23)ccc1CNC(=O)c1noc(C(C)(C)C)n1` (centres unmarked) [Example 175, 5-(tert-butyl)-N-(4-(6-(4-(2-(3-(4-((2,6-dioxopiperidin-3-yl)oxy)benzamido)cyclobutyl)acetyl)piperazin-1-yl)pyrrolo[2,1-f][1,2,4]triazin-4-yl)-2-methylbenzyl)-1,2,4-oxadiazole-3-] reads 100 to 500 nM; that for `Cc1cc(-c2ccnn3cc(CCN4CCC(c5ccc(NC6CCC(=O)NC6=O)cc5)CC4)cc23)ccc1CNC(=O)c1noc(C(C)(C)C)n1` (centres unmarked) [Example 155, 5-tert-butyl-N-[[4-[6-[2-[4-[4-[(2,6-dioxo-3-piperidyl)amino]phenyl]-1-piperidyl]ethyl]pyrrolo[1,2-b]pyridazin-4-yl]-2-methyl-phenyl]methyl]-1,2,4-oxadiazole-3-carboxamide], less than 100 nM; that for `Cc1cc(-c2ncnn3cc(-c4ccc(CN5CCN(c6ccc(NC7CCC(=O)NC7=O)cc6)CC5)cc4)cc23)ccc1CNC(=O)c1noc(C(C)(C)C)n1` (centres unmarked) [Example 29, 5-tert-butyl-N-[[4-[6-[4-[[4-[4-[(2,6-dioxo-3-piperidyl)amino]phenyl]piperazin-1-yl]methyl]phenyl]pyrrolo[2,1-f][1,2,4]triazin-4-yl]-2-methyl-phenyl]methyl]-1,2,4-oxadiazole-3-carboxamide], less than 100 nM. The result for `Cc1cc(-c2ncnn3cc(-c4ccc(CN5CCC(c6c(F)cc(C7CCC(=O)NC7=O)cc6F)CC5)cc4)cc23)ccc1CNC(=O)c1noc(C(C)(C)C)n1` (centres unmarked) [Example 10, 5-tert-butyl-N-[[4-[6-[4-[[4-[4-(2,6-dioxo-3-piperidyl)-2,6-difluoro-phenyl]-1-piperidyl]methyl]phenyl]pyrrolo[2,1-f][1,2,4]triazin-4-yl]-2-methyl-phenyl]methyl]-1,2,4-oxadiazole-3-carboxamide] reads less than 100 nM; that for `Cc1cc(-c2ncnn3cc(-c4ccc(CN5CCOC(c6ccc(NC7CCC(=O)NC7=O)cc6)C5)cc4)cc23)ccc1CNC(=O)c1noc(C(C)(C)C)n1` (centres unmarked) [Example 200, 5-(tert-butyl)-N-(4-(6-(4-((2-(4-((2,6-dioxopiperidin-3-yl)amino)phenyl)morpholino)methyl)phenyl)pyrrolo[2,1-f][1,2,4]triazin-4-yl)-2-methylbenzyl)-1,2,4-oxadiazole-3-carboxamide], less than 100 nM.

The compound `CC(C)(C)c1nc(C(=O)NCc2ccc(-c3ncnn4cc(CCN5CCC(c6ccc(C7(C)CCC(=O)NC7=O)cc6)CC5)cc34)cc2F)no1` (centres unmarked) [Example 121, 5-tert-butyl-N-[[2-fluoro-4-[6-[2-[4-[4-(3-methyl-2,6-dioxo-3-piperidyl)phenyl]-1-piperidyl]ethyl]pyrrolo[2,1-f][1,2,4]triazin-4-yl]phenyl]methyl]-1,2,4-oxadiazole-3-carboxamide] returned a DC50 of 100 to 500 nM.

In turn, `Cc1cc(-c2ncnn3cc(-c4cc(CN5CCC(c6ccc(C7CCC(=O)NC7=O)cc6)CC5)ccn4)cc23)ccc1CNC(=O)c1noc(C(C)(C)C)n1` (centres unmarked) [Example 216, 5-(tert-butyl)-N-(4-(6-(4-((4-(4-(2,6-dioxopiperidin-3-yl)phenyl)piperidin-1-yl)methyl)pyridin-2-yl)pyrrolo[2,1-f][1,2,4]triazin-4-yl)-2-methylbenzyl)-1,2,4-oxadiazole-3-carboxamide] gave a DC50 of less than 100 nM. The result for `Cc1cc(-c2ncnn3cc(-c4ccc(CN5CCC(c6ccc(NC7CCC(=O)NC7=O)cc6Cl)CC5)cc4)cc23)ccc1CNC(=O)c1noc(C(C)(C)C)n1` (centres unmarked) [Example 24, 5-tert-butyl-N-[[4-[6-[4-[[4-[2-chloro-4-[(2,6-dioxo-3-piperidyl)amino]phenyl]-1-piperidyl]methyl]phenyl]pyrrolo[2,1-f][1,2,4]triazin-4-yl]-2-methyl-phenyl]methyl]-1,2,4-oxadiazole-3-carboxamide] reads less than 100 nM; that for `CC(C)(C)c1nc(C(=O)NCc2ccc(-c3ncnn4cc(CCCCN5CCN(c6ccc(NC7CCC(=O)NC7=O)cn6)CC5)cc34)cc2F)no1` (centres unmarked) [Example 139, 5-tert-butyl-N-[[4-[6-[4-[4-[5-[(2,6-dioxo-3-piperidyl)amino]-2-pyridyl]piperazin-1-yl]butyl]pyrrolo[2,1-f][1,2,4]triazin-4-yl]-2-fluoro-phenyl]methyl]-1,2,4-oxadiazole-3-carboxamide], less than 100 nM; that for `CCc1ccc(C(=O)NCc2ccc(-c3ncnn4cc(-c5ccc(CN6CCC(c7ccc(NC8CCC(=O)NC8=O)cc7)CC6)cc5)cc34)cc2C)cc1` (centres unmarked) [Example 67, N-[[4-[6-[4-[[4-[4-[(2,6-dioxo-3-piperidyl)amino]phenyl]-1-piperidyl]methyl]phenyl]pyrrolo[2,1-f][1,2,4]triazin-4-yl]-2-methyl-phenyl]methyl]-4-ethyl-benzamide], less than 100 nM. The result for `Cc1cc(-c2ncnn3cc(-c4ccc(OCCCCCCN5CCC(c6ccc(NC7CCC(=O)NC7=O)cc6)CC5)cc4)cc23)ccc1CNC(=O)c1noc(C(C)(C)C)n1` (centres unmarked) [Example 114, 5-tert-butyl-N-[[4-[6-[4-[6-[4-[4-[(2,6-dioxo-3-piperidyl)amino]phenyl]-1-piperidyl]hexoxy]phenyl]pyrrolo[2,1-f][1,2,4]triazin-4-yl]-2-methyl-phenyl]methyl]-1,2,4-oxadiazole-3-carboxamide] reads less than 100 nM. The result for `Cc1cc(-c2ncnn3cc(-c4ccc(CN5CCC(c6ccc(NC7CCC(=O)NC7=O)cc6)CC5)cc4)cc23)ccc1CNC(=O)c1ccc(C(C)(C)C)cc1` (centres unmarked) [Example 84, 4-tert-butyl-N-[[4-[6-[4-[[4-[4-[(2,6-dioxo-3-piperidyl)amino]phenyl]-1-piperidyl]methyl]phenyl]pyrrolo[2,1-f][1,2,4]triazin-4-yl]-2-methyl-phenyl]methyl]benzamide] reads less than 100 nM; that for `COc1cc(CN2CCC(c3ccc(C4CCC(=O)NC4=O)cc3)CC2)ccc1OCCOc1cccc(-c2cc3c(-c4ccc(CNC(=O)c5noc(C(C)(C)C)n5)c(C)c4)ncnn3c2)c1` (centres unmarked) [Example 204], 100 to 500 nM. On to `Cc1cc(-c2ncnn3cc(-c4ccc(CN5CCC(c6ccc(NC7CCC(=O)NC7=O)cc6)CC5)cc4C)cc23)ccc1CNC(=O)c1noc(C(C)(C)C)n1` (centres unmarked) [Example 17, 5-tert-butyl-N-[[4-[6-[4-[[4-[4-[(2,6-dioxo-3-piperidyl)amino]phenyl]-1-piperidyl]methyl]-2-methyl-phenyl]pyrrolo[2,1-f][1,2,4]triazin-4-yl]-2-methyl-phenyl]methyl]-1,2,4-oxadiazole-3-carboxamide], for which the DC50 is less than 100 nM.

As to `Cc1cc(-c2ccnc3cc(CCCCN4CCC(c5ccc(NC6CCC(=O)NC6=O)cc5)CC4)nn23)ccc1CNC(=O)c1noc(C(C)(C)C)n1` (centres unmarked) [Example 163, 5-tert-butyl-N-[[4-[2-[4-[4-[4-[(2,6-dioxo-3-piperidyl)amino]phenyl]-1-piperidyl]butyl]pyrazolo[1,5-a]pyrimidin-7-yl]-2-methyl-phenyl]methyl]-1,2,4-oxadiazole-3-carboxamide], the 50% degradation concentration (DC50) is less than 100 nM.
